Experimental data published in patent US11083714B2, “Selective anti-cancer agent effective for prevention and treatment” (Molecular International Research, Inc., priority 2018, dated 2021).

Experiments:
[1] = system: PANC-1 pancreatic cancer cells; experiment: Cleavage of Caspase-3, Caspase-8 and PARP; type: cell-based; settings: 0-20 μM for 48 hours; 20 μM for 0-48 hours
Source text: FIG. 12. Cleavage of Caspase-3, Caspase-8, and PARP confirms that de-ethylflavopereirine induces apoptosis in PANC-1 pancreatic cancer cells. Beta-actin was used as a control.
Induction of apoptosis was also shown by detection of Caspase-8, Caspase-3, and PARP cleavage products. The cleaved protein products are identified in FIG. 12 by arrows adjacent to the right panel. The accumulation of these proteolytic fragments is a biochemical signature for apoptotic cell death.

AM-38 = experiment: Glioblastoma cell viability and proliferation assay (ATP), AM-38; type: cell-based; settings: AM38, 72 hr
Method: (§1) FIG. 9. Glioblastoma in vitro cell viability and proliferation assay after treatment with de-ethylflavopereirine. Glioblastoma cell lines U-87MG, DBTRG-05MG, A172, and AM-38 were tested. Temozolomide, an oral chemotherapy drug known to treat some brain cancers, was used as a control. The concentrations of temozolomide (circles) or compound 13-9-1 (squares) used were 3 nM, 10 nM, 30 nM, 100 nM, 1 uM, 3 uM, 10 uM, and 30 uM. Each of the cell lines was treated with de-ethylflavopereirine for 72 hr before measuring cytotoxicity and inhibition of cell proliferation. Number of viable cells in culture based on quantitation of ATP. IC50 was determined as indicated below each graph.
(§2) The dose-response curves for the anti-brain cancer drug temozolomide are shown for comparison.

PANC-1, MIA PaCa, BxPc = experiment: Apoptosis by flow cytometry in pancreatic cancer cell lines; type: cell-based; settings: 10 μM and 20 μM
Method: FIG. 11. De-ethylflavopereirine induces apoptosis in pancreatic cancer cell lines PANC-1 (top), MIA PaCa (middle), and BxPc (bottom). Following exposure of cells to de-ethylflavopereirine at concentrations of 0.5 μM, 10 μM, and 20 μM, flow cytometry was used to assess the percentage of cells undergoing early apoptosis (clear), late apoptosis (dark), or necrosis (stipple). […] Values are mean±SEM (n=3). *p≤0.05 compared with control group using Student's t-test; **p≤0.01 compared with control group using Student's t-test.

PANC-1 cells = experiment: CD24/CD44/EpCam triple positive cells by flow cytometry; type: cell-based; settings: 2.5, 5, 10 μM
Method: FIG. 24. De-ethylflavopereirine decreased the percentage of cancer stem cells in a pancreatic cancer cell population (24 hours). The panels show CD44 (PE-Cy7) positive and EpCam (APC) positive cells in the CD24 (PE) gate at concentrations of 0 μM (upper left), 2.5 μM (upper right), 5 μM (lower left), and 10 μM (lower right) de-ethylflavopereirine after 24 hr. “Q1”=CD24^+/CD44^+, “Triple+”=CD24^+/CD44^+/EpCam^+, “Q3”=CD24^+, and “Q4”=CD24^+/EpCam^+.
FIG. 25. De-ethylflavopereirine decreased the percentage of cancer stem cells in a pancreatic cancer cell population (48 hours). The panels show CD44 (PE-Cy7) positive and EpCam (APC) positive cells in the CD24 (PE) gate at concentrations of 0 μM (upper left), 2.5 μM (upper right), 5 μM (lower left), and 10 μM (lower right) de-ethylflavopereirine after 48 hr. “Q1”=CD24^+/CD44^+, “Triple+”=CD24^+/CD44^+/EpCam^+, “Q3”=CD24^+, and “Q4”=CD24^+/EpCam^+.
Cancer stem cells can be identified by specific cell-surface markers. A combination of three markers CD24, CD44, and EpCam is used for detection of pancreatic cancer stem cells. These markers can be labeled by different fluorophores and detected simultaneously by flow cytometry. Triple positive cells (i.e., cells that express all three markers) are regarded as pancreatic cancer stem cells. De-ethylflavopereirine reduced the percentage of pancreatic cancer stem cells in pancreatic cancer cell populations. PANC-1 cells were treated with 2.5 μM, 5.0 μM, and 10 μM concentrations of the compound for 24 hours or 48 hours. Triple positive cells were identified in quadrant Q2 (“Triple+”) of the flow cytometry output.

[2] = Tissue distribution after oral administration; type: in vivo, mice; settings: oral 200 mg/kg; for Tmax: mouse
Source text: The highest concentrations (highest Cmax) were found in kidney, colon and spleen. Highest AUC was found with the lung, followed by spleen, colon, and kidney.
Lung had the largest AUC and the fastest Tmax. […] Compound 13-9-1 was accumulated in the lung relatively fast, and was eliminated relatively slowly. The concentration was maintained in lung for a long time relative to other organs. At 24 hr, the concentration in the lung was still 6.67 nmoles/mg protein, 38% of the peak of 17.50 at 2 hr.
Colon had the second highest Cmax among all the organs tested, and an AUC only less than lung and spleen. […] Tmax was 3 hr. At 24 hr, the concentration was 9.31 nmoles/mg protein, 29% of the peak of 31.63.

RPWE-1 = experiment: Cell Proliferation (anti-cancer), RPWE-1; type: cell-based, human
Method: The primary goal of synthesizing de-ethylflavopereirine (compound 13-9-1) was to generate a different compound that still retains the anti-cancer cell activity of flavopereirine (compound 13-7-2). Comparison of the effects of the two compounds on proliferation of a variety of cancer cells confirmed that this goal was achieved. For example, the effect of de-ethylflavopereirine on two human breast cancer cell lines and two human prostate cancer cell lines were analyzed.

[3] = system: glioblastoma cell lines U-87MG, DBTRG-05MG, A172; experiment: Glioblastoma cell viability and proliferation assay (ATP); type: cell-based; settings: 3 nM to 30 uM, 72 hr
Method: as §1, §2

## c1ccc2c(c1)[nH]c1c2cc[n+]2ccccc12 [Compound 13-9-1, 12H-indolo[2,3-a]quinolizin-5-ium]
[1]
  cleavage of Caspase-3, Caspase-8 and PARP: dose- and time-dependent
AM-38
  IC50 relative to IC50 of temozolomide: 0.66 times
PANC-1, MIA PaCa, BxPc
  induction of apoptosis: induction is dose dependent
PANC-1, MIA PaCa, BxPc; listed as De-ethylflavopereirine
  induction of apoptosis: Early apoptosis is the predominant result
PANC-1 cells; 24 hr, listed as De-ethylflavopereirine
  CD24+/CD44+/EpCam+ (triple positive) cell population: Reduction
PANC-1 cells; 24 hr, listed as de-ethylflavopereirine
  CD24+/CD44+/EpCam+ (triple positive) cell population: reduced the CD24^+/CD44^+/EpCam^+ cell population
PANC-1 cells; 48 hr
  CD24+/CD44+/EpCam+ (triple positive) cell population: reduced the CD24^+/CD44^+/EpCam^+ cell population
[2]; adrenal gland
  Cmax: 17.62 nmoles/mg of protein
  Tmax: 4 h
[2]; brain
  Cmax: 1.20 nmoles/mg of protein
  Tmax: 4 h
[2]; colon
  Cmax: 31.63 nmoles/mg of protein
  concentration at 24 hr: 9.31 nmoles/mg protein
  concentration at 24 hr as share of the peak: 29%
  Tmax: 3 h
[2]; heart
  Cmax: 7.82 nmoles/mg of protein
  Tmax: 4 h
[2]; kidney
  Cmax: 55.69 nmoles/mg of protein
  Tmax: 4 h
[2]; liver
  Cmax: 22.21 nmoles/mg of protein
  Tmax: 4 h
[2]; lung
  Cmax: 17.50 nmoles/mg of protein
  concentration at 24 hr: 6.67 nmoles/mg protein
  concentration at 24 hr as share of the peak: 38%
  Tmax: 2 h
[2]; muscle
  Tmax: 4 h
  Cmax: 5.67 nmoles/mg of protein
[2]; ovary
  Tmax: 4 h
  Cmax: 11.17 nmoles/mg of protein
[2]; pancreas
  Tmax: 4 h
  Cmax: 16.95 nmoles/mg of protein
[2]; spleen
  Tmax: 4 h
  Cmax: 30.01 nmoles/mg of protein
[2]
  tissue distribution: found in all tested organs and tissues, including the brain
RPWE-1
  Growth Inhibition: Yes
RPWE-1; Homo sapiens, after any period of treatment, read-out: Minimum Dose (IC50) needed to decrease growth 50% or greater versus control
  IC50: 5 µM
[3]
  glioblastoma cell viability: dose-dependent decrease in glioblastoma cell viability
